Test results taken from ChEMBL document CHEMBL5500363, “Discovery of novel ocotillol derivatives modulating glucocorticoid receptor/NF-κB signaling for the treatment of sepsis” (Eur J Med Chem, 2024).

Tests used:
[1] = Cytotoxicity against mouse RAW264.7 cells assessed as cell viability at 40 uM incubated for 24 hrs by MTT assay relative to control; assay type: toxicity, cell-based; settings: read-out: Activity
RAW264.7 [2] = assay: Inhibition of LPS-induced NO production in mouse RAW264.7 cells at 5 uM pretreated for 2 hrs followed by LPS stimulation for 24 hrs by Griess assay relative to control; assay type: functional; settings: time 26 hrs
RAW264.7 [3] = assay: Inhibition of LPS-induced NO production in mouse RAW264.7 cells at 10 uM pretreated for 2 hrs followed by LPS stimulation for 24 hrs by Griess assay relative to control; assay type: functional; settings: time 26 hrs
RAW264.7 [4] = assay: Inhibition of LPS-induced NO production in mouse RAW264.7 cells at 20 uM pretreated for 2 hrs followed by LPS stimulation for 24 hrs by Griess assay relative to control; assay type: functional; settings: time 26 hrs
RAW264.7 [5] = assay: Inhibition of LPS-induced NO production in mouse RAW264.7 cells pretreated for 2 hrs followed by LPS stimulation for 24 hrs by Griess assay; assay type: functional, cell-based
RAW264.7 [6] = assay: Cytotoxicity against mouse RAW264.7 cells assessed as cell viability at 40 uM incubated for 24 hrs by MTT assay; assay type: toxicity, cell-based; settings: raw264.7, 24 h

Structure (SMILES)	IC50 (RAW264.7 [5])	viability at 24 h, 40 µM [1]	inhibition at 5 µM (RAW264.7 [2])	inhibition at 10 µM (RAW264.7 [3])	inhibition at 20 µM (RAW264.7 [4])	Activity (RAW264.7 [6])
CC(C)(O)[C@H]1CC[C@@](C)(C2CC[C@]3(C)[C@@H]2[C@H](O)C[C@@H]2[C@@]4(C)CC[C@H](O)C(C)(C)[C@@H]4CC[C@]23C)O1 (some centres undefined)	20.8 µM	–	13%	19.7%	30.3%	–
CC(C)(O)[C@@H]1CC[C@@](C)(C2CC[C@]3(C)[C@@H]2[C@H](O)C[C@@H]2[C@@]4(C)Cc5sc(NC(=O)OC(F)(F)F)nc5C(C)(C)[C@@H]4CC[C@]23C)O1 (some centres undefined)	41.6 µM	> 90%	6.07%	6.84%	22.2%	–
CC(C)(O)[C@H]1CC[C@@](C)(C2CC[C@]3(C)[C@@H]2[C@H](O)C[C@@H]2[C@@]4(C)CC[C@H](OC(=O)CCC(=O)Nc5nncs5)C(C)(C)[C@@H]4CC[C@]23C)O1 (some centres undefined)	40.3 µM	> 90%	10.8%	18.5%	35.7%	–
CC(C)(C)OC(=O)NCCCCCCCC(=O)Nc1nc2c(s1)C[C@]1(C)[C@H]3C[C@@H](O)[C@@H]4C([C@]5(C)CC[C@H](C(C)(C)O)O5)CC[C@@]4(C)[C@]3(C)CC[C@H]1C2(C)C (some centres undefined)	–	–	–	–	–	Toxic
CC(C)(O)[C@@H]1CC[C@@](C)(C2CC[C@]3(C)[C@@H]2[C@H](O)C[C@@H]2[C@@]4(C)CC[C@H](OC(=O)CCC(=O)Nc5nnc(Cl)s5)C(C)(C)[C@@H]4CC[C@]23C)O1 (some centres undefined)	29.8 µM	> 90%	32.5%	43.4%	45.7%	–
CC(C)(O)[C@H]1CC[C@@](C)(C2CC[C@]3(C)[C@@H]2[C@H](O)C[C@@H]2[C@@]4(C)Cc5sc(NC(=O)OC(F)(F)F)nc5C(C)(C)[C@@H]4CC[C@]23C)O1 (some centres undefined)	35.6 µM	> 90%	8.01%	21.2%	37.5%	–
CC(=O)Nc1nc2c(s1)C[C@]1(C)[C@H]3C[C@@H](O)[C@@H]4C([C@]5(C)CC[C@@H](C(C)(C)O)O5)CC[C@@]4(C)[C@]3(C)CC[C@H]1C2(C)C (some centres undefined)	–	–	–	–	–	Toxic
CC(C)(C)OC(=O)NCCCCCC(=O)Nc1nc2c(s1)C[C@]1(C)[C@H]3C[C@@H](O)[C@@H]4C([C@]5(C)CC[C@@H](C(C)(C)O)O5)CC[C@@]4(C)[C@]3(C)CC[C@H]1C2(C)C (some centres undefined)	24.5 µM	> 90%	27.4%	43.6%	48.5%	–
CC(C)(O)[C@@H]1CC[C@@](C)(C2CC[C@]3(C)[C@@H]2[C@H](O)C[C@@H]2[C@@]4(C)CC[C@H](O)C(C)(C)[C@@H]4CC[C@]23C)O1 (some centres undefined)	30.4 µM	–	5.58%	8.85%	22.3%	–
CC(C)(C)OC(=O)CCCC(=O)Nc1nc2c(s1)C[C@]1(C)[C@H]3C[C@@H](O)[C@@H]4C([C@]5(C)CC[C@@H](C(C)(C)O)O5)CC[C@@]4(C)[C@]3(C)CC[C@H]1C2(C)C (some centres undefined)	11.6 µM	> 90%	20.4%	41.2%	60.4%	–
CC(C)(C)OC(=O)CC(=O)Nc1nc2c(s1)C[C@]1(C)[C@H]3C[C@@H](O)[C@@H]4C([C@]5(C)CC[C@H](C(C)(C)O)O5)CC[C@@]4(C)[C@]3(C)CC[C@H]1C2(C)C (some centres undefined)	17.5 µM	> 90%	14.3%	29.8%	50%	–
Cc1nnc(NC(=O)CCC(=O)O[C@H]2CC[C@]3(C)[C@H]4C[C@@H](O)[C@@H]5C([C@]6(C)CC[C@H](C(C)(C)O)O6)CC[C@@]5(C)[C@]4(C)CC[C@H]3C2(C)C)s1 (some centres undefined)	–	–	–	–	–	Toxic
CC(C)(C)OC(=O)NCCCC(=O)Nc1nc2c(s1)C[C@]1(C)[C@H]3C[C@@H](O)[C@@H]4C([C@]5(C)CC[C@H](C(C)(C)O)O5)CC[C@@]4(C)[C@]3(C)CC[C@H]1C2(C)C (some centres undefined)	–	–	–	–	–	Toxic
CC(C)(C)OC(=O)NCCCCCCCCCCC(=O)Nc1nc2c(s1)C[C@]1(C)[C@H]3C[C@@H](O)[C@@H]4C([C@]5(C)CC[C@H](C(C)(C)O)O5)CC[C@@]4(C)[C@]3(C)CC[C@H]1C2(C)C (some centres undefined)	–	–	–	–	–	Toxic
CC(C)(O)[C@H]1CC[C@@](C)(C2CC[C@]3(C)[C@@H]2[C@H](O)C[C@@H]2[C@@]4(C)CC[C@H](OC(=O)CCC(=O)Nc5nnc(Br)s5)C(C)(C)[C@@H]4CC[C@]23C)O1 (some centres undefined)	–	–	–	–	–	Toxic
CC(=O)Nc1nc2c(s1)C[C@]1(C)[C@H]3C[C@@H](O)[C@@H]4C([C@]5(C)CC[C@H](C(C)(C)O)O5)CC[C@@]4(C)[C@]3(C)CC[C@H]1C2(C)C (some centres undefined)	–	–	–	–	–	Toxic
CC(C)(C)OC(=O)NCCCCCC(=O)Nc1nc2c(s1)C[C@]1(C)[C@H]3C[C@@H](O)[C@@H]4C([C@]5(C)CC[C@H](C(C)(C)O)O5)CC[C@@]4(C)[C@]3(C)CC[C@H]1C2(C)C (some centres undefined)	–	–	–	–	–	Toxic
CC(C)(C)OC(=O)NCCCC(=O)Nc1nc2c(s1)C[C@]1(C)[C@H]3C[C@@H](O)[C@@H]4C([C@]5(C)CC[C@@H](C(C)(C)O)O5)CC[C@@]4(C)[C@]3(C)CC[C@H]1C2(C)C (some centres undefined)	–	–	–	–	–	Toxic
CC(C)(O)[C@H]1CC[C@@](C)(C2CC[C@]3(C)[C@@H]2[C@H](O)C[C@@H]2[C@@]4(C)Cc5sc(NC(=O)C(F)(F)F)nc5C(C)(C)[C@@H]4CC[C@]23C)O1 (some centres undefined)	–	–	–	–	–	Toxic
Cc1nnc(NC(=O)CCC(=O)O[C@H]2CC[C@]3(C)[C@H]4C[C@@H](O)[C@@H]5C([C@]6(C)CC[C@@H](C(C)(C)O)O6)CC[C@@]5(C)[C@]4(C)CC[C@H]3C2(C)C)s1 (some centres undefined)	–	–	–	–	–	Toxic

More lines, main results first:

IC50 (RAW264.7 [5])	Structure (SMILES)	viability at 24 h, 40 µM [1]	inhibition at 5 µM (RAW264.7 [2])	inhibition at 10 µM (RAW264.7 [3])	inhibition at 20 µM (RAW264.7 [4])	Activity (RAW264.7 [6])
16.5 µM	CC(C)(C)OC(=O)CCC(=O)Nc1nc2c(s1)C[C@]1(C)[C@H]3C[C@@H](O)[C@@H]4C([C@]5(C)CC[C@H](C(C)(C)O)O5)CC[C@@]4(C)[C@]3(C)CC[C@H]1C2(C)C (some centres undefined)	> 90%	11.1%	22.5%	39.1%	–
25.7 µM	CC(C)(O)[C@@H]1CC[C@@](C)(C2CC[C@]3(C)[C@@H]2[C@H](O)C[C@@H]2[C@@]4(C)Cc5sc(NC(=O)C(F)(F)F)nc5C(C)(C)[C@@H]4CC[C@]23C)O1 (some centres undefined)	> 90%	14.2%	20.6%	30.9%	–
26.1 µM	CC(C)(O)[C@@H]1CC[C@@](C)(C2CC[C@]3(C)[C@@H]2[C@H](O)C[C@@H]2[C@@]4(C)Cc5sc(N)nc5C(C)(C)[C@@H]4CC[C@]23C)O1 (some centres undefined)	> 90%	11.4%	23.5%	36.6%	–
50.6 µM	CC(C)(C)OC(=O)NCCCCCCCCCCC(=O)Nc1nc2c(s1)C[C@]1(C)[C@H]3C[C@@H](O)[C@@H]4C([C@]5(C)CC[C@@H](C(C)(C)O)O5)CC[C@@]4(C)[C@]3(C)CC[C@H]1C2(C)C (some centres undefined)	> 90%	1.99%	6.18%	17.1%	–
33.1 µM	CC(C)(C)OC(=O)NCCCCCCCC(=O)Nc1nc2c(s1)C[C@]1(C)[C@H]3C[C@@H](O)[C@@H]4C([C@]5(C)CC[C@@H](C(C)(C)O)O5)CC[C@@]4(C)[C@]3(C)CC[C@H]1C2(C)C (some centres undefined)	> 90%	19.9%	29.9%	39.4%	–
17.9 µM	CC(C)(O)[C@@H]1CC[C@@](C)(C2CC[C@]3(C)[C@@H]2[C@H](O)C[C@@H]2[C@@]4(C)CC[C@H](OC(=O)CCC(=O)Nc5nncs5)C(C)(C)[C@@H]4CC[C@]23C)O1 (some centres undefined)	> 90%	7.78%	21.3%	58.6%	–
52 µM	CC(C)(C)OC(=O)CCCC(=O)Nc1nc2c(s1)C[C@]1(C)[C@H]3C[C@@H](O)[C@@H]4C([C@]5(C)CC[C@H](C(C)(C)O)O5)CC[C@@]4(C)[C@]3(C)CC[C@H]1C2(C)C (some centres undefined)	> 90%	14.2%	13.3%	18.1%	–
10.3 µM	CC(C)(O)[C@@H]1CC[C@@](C)(C2CC[C@]3(C)[C@@H]2[C@H](O)C[C@@H]2[C@@]4(C)CC[C@H](OC(=O)CCC(=O)Nc5nnc(Br)s5)C(C)(C)[C@@H]4CC[C@]23C)O1 (some centres undefined)	> 90%	34.8%	47%	70.2%	–
9.17 µM	CC(C)(C)OC(=O)CC(=O)Nc1nc2c(s1)C[C@]1(C)[C@H]3C[C@@H](O)[C@@H]4C([C@]5(C)CC[C@@H](C(C)(C)O)O5)CC[C@@]4(C)[C@]3(C)CC[C@H]1C2(C)C (some centres undefined)	> 90%	24.5%	40.7%	67.2%	–
11.4 µM	CC(C)(O)[C@H]1CC[C@@](C)(C2CC[C@]3(C)[C@@H]2[C@H](O)C[C@@H]2[C@@]4(C)CC[C@H](OC(=O)CCC(=O)Nc5nnc(Cl)s5)C(C)(C)[C@@H]4CC[C@]23C)O1 (some centres undefined)	> 90%	28.6%	47.3%	57.9%	–
18.9 µM	CC(C)(O)[C@H]1CC[C@@](C)(C2CC[C@]3(C)[C@@H]2[C@H](O)C[C@@H]2[C@@]4(C)Cc5sc(N)nc5C(C)(C)[C@@H]4CC[C@]23C)O1 (some centres undefined)	> 90%	19%	23.9%	37.7%	–
